Results taken from US11214561B2, “Histone methyltransferase EZH2 inhibitor, preparation method and pharmaceutical use thereof” (ANCUREALL PHARMACEUTICAL (SHANGHAI) CO., LTD., priority 2017, dated 2022).

Experiments:
Karpas-422 (EZH2 Y641N) = test: In vitro 50% growth inhibition (GI50), MTT/CCK8, Karpas-422 cells; assay type: cell-based; details: Homo sapiens, KARPAS-422, 144 h; Drug treatment for 6 days
Text: (§1) In the present invention, a representative tumor cell line was selected to determine the cell growth inhibition activity of the present compound. Cell culture conditions and methods were in accordance with the requirements for each cell lines. The cells were subcultured in vitro for less than 3 generations each time, and as required, monoclone purification and identification of cell lines could be carried out.
(§2) The cell culture media used were RPMI1640 (Gibco) comprising 5-20% of fetal bovine serum (Gibco), 1% of double-antibiotic and 2 mM of glutamine.
(§3) Suspension culture cells were collected by centrifugation (1700 rpm, 3 minutes), and the supernatant was discarded and the cells were counted. According to each cell growth cycle, different concentrations of cells were prepared (1-10×10^4 cells per ml) and added to 96-well plates (Corning) with 100 μl per well, and then incubated overnight at 37° C., 5% CO2. The next day, the test compound was added to the cultured cells (2 wells in parallel). The final concentration of the solvent was less than 1/1,000. The cells were further cultured for 6 to 12 days and assayed by MTT.
(§4) The compound was stored at a concentration of 10 mM at −20° C. and diluted to two-fold or 10-fold series prior to use.
(§5) For the suspension culture cells, CCK8 was directly added to 10% of the final concentration. The cells were continually incubated for […].
(§6) The experiments were repeated 3 times and a statistical analysis of data was conducted.

SU-DHL-8 (EZH2 WT) = test: In vitro 50% growth inhibition (GI50), MTT/CCK8, SU-DHL-8 cells; assay type: cell-based; details: Homo sapiens, SU-DHL-8, 144 h; Drug treatment for 6 days
Text: as §1, §2, §3, §4, §5, §6

Pfeiffer (EZH2 A677G) = test: In vitro 50% growth inhibition (GI50), MTT/CCK8, Pfeiffer cells; assay type: cell-based, Human; details: for growth inhibitory activity / GI50 level against Pfeiffer, in words: EZH2 A677G mutant cells Pfeiffer; for GI50: Homo sapiens, Pfeiffer, 240 h, Drug treatment for 10 days
Text: as §1, §2, §3, §4, §5, §6

## C=CC(=O)N1CCC(N(CC)c2cc(-c3ccc(CN4CCN(C5CCOCC5)CC4)cc3)cc(C(=O)NCc3c(C)cc(C)[nH]c3=O)c2C)CC1 [Example 89, N-(4,6-dimethyl-2-oxo-1,2-dihydro-pyridin-3-ylmethyl)-5-[(1-acryloyl-piperidin-4-yl)-ethyl-amino]-4-methyl-4′-[4-(tetrahydropyran-4-yl)-piperazin-1-ylmethyl]-[1,1′-biphenyl]-3-carboxamide]
Karpas-422 (EZH2 Y641N)
  GI50: 0.01 to 0.1 µM
SU-DHL-8 (EZH2 WT)
  GI50: > 1 µM
Pfeiffer (EZH2 A677G)
  growth inhibitory activity / GI50 level against Pfeiffer, in words: subnanomolar level
  GI50: < 0.001 µM

## C=CC(=O)N1CCC(N(CC)c2cc(-c3ccc(CN4CCC(OCC)CC4)cc3)cc(C(=O)NCc3c(C)cc(C)[nH]c3=O)c2C)CC1 [Example 88, N-(4,6-dimethyl-2-oxo-1,2-dihydro-pyridin-3-ylmethyl)-5-[(1-acryloyl-piperidin-4-yl)-ethyl-amino]-4-methyl-4′-(4-ethoxypiperidin-1-ylmethyl)-[1,1′-biphenyl]-3-carboxamide]
Karpas-422 (EZH2 Y641N)
  GI50: 0.01 to 0.1 µM
SU-DHL-8 (EZH2 WT)
  GI50: > 1 µM
Pfeiffer (EZH2 A677G)
  growth inhibitory activity / GI50 level against Pfeiffer, in words: subnanomolar level
  GI50: < 0.001 µM

## C=CC(=O)N1CCC(N(C)c2cc(Br)cc(C(=O)NCc3c(C)cc(C)[nH]c3=O)c2C)C1 (stereo not shown) [Example 10, 3-[(1-acryloyl-pyrrolidin-3-yl)-methyl-amino]-5-bromo-N-(4,6-dimethyl-2-oxo-1,2-dihydro-pyridin-3-ylmethyl)-2methyl-benzamide]
Karpas-422 (EZH2 Y641N)
  GI50: > 1 µM
SU-DHL-8 (EZH2 WT)
  GI50: > 1 µM
Pfeiffer (EZH2 A677G)
  GI50: 0.01 to 0.1 µM

## C=CC(=O)N1CCC(N(CC)c2cc(-c3ccc(N4CCOCC4)cc3)cc(C(=O)NCc3c(C)cc(C)[nH]c3=O)c2C)C1 (stereo not shown) [Example 24, N-(4,6-dimethyl-2-oxo-1,2-dihydro-pyridin-3-ylmethyl)-5-[(1-acryloyl-pyrrolidin-3-yl)-ethyl-amino]-4′-(morpholin-4-yl)-4-methyl-biphenyl-3-carboxamide]
Karpas-422 (EZH2 Y641N)
  GI50: 0.1 to 1 µM
SU-DHL-8 (EZH2 WT)
  GI50: > 1 µM
Pfeiffer (EZH2 A677G)
  GI50: 0.001 to 0.01 µM

## C=CC(=O)N1CCC(N(CC)c2cc(-c3ccc(CN4CCC(OC)CC4)cc3)cc(C(=O)NCc3c(C)cc(C)[nH]c3=O)c2C)CC1 [Example 65, N-(4,6-dimethyl-2-oxo-1,2-dihydro-pyridin-3-ylmethyl)-5-[(1-acryloyl-piperidin-4-yl)-ethyl-amino]-4-methyl-4′-(4-methoxypiperidin-1-ylmethyl)-[1,1′-biphenyl]-3-carboxamide]
Karpas-422 (EZH2 Y641N)
  GI50: 0.01 to 0.1 µM
SU-DHL-8 (EZH2 WT)
  GI50: > 1 µM
Pfeiffer (EZH2 A677G)
  growth inhibitory activity / GI50 level against Pfeiffer, in words: subnanomolar level
  GI50: < 0.001 µM

## C=CC(=O)N1CCC(N(CC)c2cc(-c3ccc(CN4CCC(N5CCOCC5)CC4)cc3)cc(C(=O)NCc3c(C)cc(C)[nH]c3=O)c2C)CC1 [Example 81]
Karpas-422 (EZH2 Y641N)
  GI50: 0.01 to 0.1 µM
SU-DHL-8 (EZH2 WT)
  GI50: > 1 µM
Pfeiffer (EZH2 A677G)
  GI50: 0.001 to 0.01 µM

## C=CC(=O)N1CCC(N(CC)c2cc(-c3cccc(CN4CCCCC4)c3)cc(C(=O)NCc3c(C)cc(C)[nH]c3=O)c2C)C1 (stereo not shown) [Example 31, N-(4,6-dimethyl-2-oxo-1,2-dihydro-pyridin-3-ylmethyl)-5-[(1-acryloyl-pyrrolidin-3-yl)-ethyl-amino]-4-methyl-3′-(piperidin-1-ylmethyl)-[1,1′-biphenyl]-3-carboxamide]
Karpas-422 (EZH2 Y641N)
  GI50: 0.01 to 0.1 µM
SU-DHL-8 (EZH2 WT)
  GI50: > 1 µM
Pfeiffer (EZH2 A677G)
  GI50: 0.001 to 0.01 µM

## C=CC(=O)N1CCC(N(CC)c2cc(Cl)cc(C(=O)NCc3c(C)cc(C)[nH]c3=O)c2C)C1 (stereo not shown) [Example 3, 3-[(1-acryloyl-pyrrolidin-3-yl)-ethyl-amino]-5-chloro-N-(4,6-dimethyl-2-oxo-1,2-dihydro-pyridin-3-ylmethyl)-2-methyl-benzamide]
Karpas-422 (EZH2 Y641N)
  GI50: 0.01 to 0.1 µM
SU-DHL-8 (EZH2 WT)
  GI50: > 1 µM
Pfeiffer (EZH2 A677G)
  GI50: 0.001 to 0.01 µM

## C=CC(=O)N1CCC(N(CC)c2cc(-c3ccc(N4CCOCC4)nc3)cc(C(=O)NCc3c(C)cc(C)[nH]c3=O)c2C)C1 (stereo not shown) [Example 52, N-(4,6-dimethyl-2-oxo-1,2-dihydro-pyridin-3-ylmethyl)-3-[(1-acryloyl-pyrrolidin-3-yl)-ethyl-amino]-2-methyl-5-[6-(morpholin-4-yl)-pyridin-3-yl]-benzamide]
Karpas-422 (EZH2 Y641N)
  GI50: 0.01 to 0.1 µM
SU-DHL-8 (EZH2 WT)
  GI50: > 1 µM
Pfeiffer (EZH2 A677G)
  GI50: 0.001 to 0.01 µM

## C=CC(=O)N1CCC(N(CC)c2cc(-c3ccc(CN4CCC(OCCOC)CC4)cc3)cc(C(=O)NCc3c(C)cc(C)[nH]c3=O)c2C)CC1 [Example 77, N-(4,6-dimethyl-2-oxo-1,2-dihydro-pyridin-3-ylmethyl)-5-[(1-acryloyl-piperidin-4-yl)-ethyl-amino]-4-methyl-4′-[4-(2-methoxyethyloxy)-piperidin-1-ylmethyl]-[1,1′-biphenyl]-3-carboxamide]
Karpas-422 (EZH2 Y641N)
  GI50: 0.01 to 0.1 µM
SU-DHL-8 (EZH2 WT)
  GI50: > 1 µM
Pfeiffer (EZH2 A677G)
  growth inhibitory activity / GI50 level against Pfeiffer, in words: subnanomolar level
  GI50: < 0.001 µM

## C=CC(=O)N1CCC(N(CC)c2cc(-c3ccc(CN4CCOCC4)c(F)c3)cc(C(=O)NCc3c(C)cc(C)[nH]c3=O)c2C)C1 (stereo not shown) [Example 23, N-(4,6-dimethyl-2-oxo-1,2-dihydro-pyridin-3-ylmethyl)-5-[(1-acryloyl-pyrrolidin-3-yl)-ethyl-amino]-3′-fluoro-4′-(morpholin-4-ylmethyl)-4-methyl-biphenyl-3-carboxamide]
Karpas-422 (EZH2 Y641N)
  GI50: 0.01 to 0.1 µM
SU-DHL-8 (EZH2 WT)
  GI50: > 1 µM
Pfeiffer (EZH2 A677G)
  GI50: 0.001 to 0.01 µM
